Consider 31 compounds from US10793563B2, “GCN2 inhibitors and uses thereof” (Merck Patent GmbH, priority 2018, dated 2020).

In one assay the target is GCN2 kinase (Homo sapiens (Human), UniProt Q9P2K8). As to the kind of experiment: GCN2 Enzyme Inhibition Assay (Transcreener ADP2 fluorescence polarization). The settings on record: Ki(app); 280 μM ATP, 200 μM (RS)7 peptide, 4 nM GCN2, 25° C. It counts as biochemical. The essentials: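 Transcreener ADP2 fluorescence polarization detection of ADP from 4 nM GCN2 with (RS)7 substrate in 25 mM Tris-HCl pH 7.5, 50 mM NaCl, 10 mM MgCl2, 1 mM DTT. Compound pre-incubated with enzyme 10 min at 25 °C; reaction started by ATP, run 1 h at 25 °C. IC50 and Ki(app) by tight-binding fit.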
For orientation: Polarisation of emitted light reports the rotation of a fluorescent probe.

Assay [1] concerns the target intracellular GCN2 (phosphorylation of the GCN2 substrate eIF2α) (Homo sapiens (Human), UniProt Q9P2K8). As to the kind of experiment: GCN2 Cellular Inhibition Assay (AlphaScreen SureFire P-eIF2α Ser51, borrelidin-treated U2OS cells). It counts as cell-based. The settings on record: 10 μM borrelidin, 1 h. The essentials:
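U2OS cells adhered overnight, then given compound (top 40 μM, 4-fold serial dilutions) plus 10 μM borrelidin for 1 h at 37 °C. Lysates assayed for eIF2α phospho-Ser51 by AlphaScreen SureFire; % inhibition versus borrelidin-only wells.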
In general terms: Alpha assays give light when donor and acceptor beads are brought close together.

Setting [2] is: phosphorylated eIF2α Ser51, read-out: GCN2 Biomarker (IC50).
[3] abbreviates: GCN2 Biomarker (IC50), phosphorylated eIF2α Ser51.

The structures appear in SMILES notation. Read-outs that look alike come from different tables or passages of the source. Some results are limits rather than exact numbers.

Sequence of intracellular GCN2 (phosphorylation of the GCN2 substrate eIF2α) (Q9P2K8 whole entry): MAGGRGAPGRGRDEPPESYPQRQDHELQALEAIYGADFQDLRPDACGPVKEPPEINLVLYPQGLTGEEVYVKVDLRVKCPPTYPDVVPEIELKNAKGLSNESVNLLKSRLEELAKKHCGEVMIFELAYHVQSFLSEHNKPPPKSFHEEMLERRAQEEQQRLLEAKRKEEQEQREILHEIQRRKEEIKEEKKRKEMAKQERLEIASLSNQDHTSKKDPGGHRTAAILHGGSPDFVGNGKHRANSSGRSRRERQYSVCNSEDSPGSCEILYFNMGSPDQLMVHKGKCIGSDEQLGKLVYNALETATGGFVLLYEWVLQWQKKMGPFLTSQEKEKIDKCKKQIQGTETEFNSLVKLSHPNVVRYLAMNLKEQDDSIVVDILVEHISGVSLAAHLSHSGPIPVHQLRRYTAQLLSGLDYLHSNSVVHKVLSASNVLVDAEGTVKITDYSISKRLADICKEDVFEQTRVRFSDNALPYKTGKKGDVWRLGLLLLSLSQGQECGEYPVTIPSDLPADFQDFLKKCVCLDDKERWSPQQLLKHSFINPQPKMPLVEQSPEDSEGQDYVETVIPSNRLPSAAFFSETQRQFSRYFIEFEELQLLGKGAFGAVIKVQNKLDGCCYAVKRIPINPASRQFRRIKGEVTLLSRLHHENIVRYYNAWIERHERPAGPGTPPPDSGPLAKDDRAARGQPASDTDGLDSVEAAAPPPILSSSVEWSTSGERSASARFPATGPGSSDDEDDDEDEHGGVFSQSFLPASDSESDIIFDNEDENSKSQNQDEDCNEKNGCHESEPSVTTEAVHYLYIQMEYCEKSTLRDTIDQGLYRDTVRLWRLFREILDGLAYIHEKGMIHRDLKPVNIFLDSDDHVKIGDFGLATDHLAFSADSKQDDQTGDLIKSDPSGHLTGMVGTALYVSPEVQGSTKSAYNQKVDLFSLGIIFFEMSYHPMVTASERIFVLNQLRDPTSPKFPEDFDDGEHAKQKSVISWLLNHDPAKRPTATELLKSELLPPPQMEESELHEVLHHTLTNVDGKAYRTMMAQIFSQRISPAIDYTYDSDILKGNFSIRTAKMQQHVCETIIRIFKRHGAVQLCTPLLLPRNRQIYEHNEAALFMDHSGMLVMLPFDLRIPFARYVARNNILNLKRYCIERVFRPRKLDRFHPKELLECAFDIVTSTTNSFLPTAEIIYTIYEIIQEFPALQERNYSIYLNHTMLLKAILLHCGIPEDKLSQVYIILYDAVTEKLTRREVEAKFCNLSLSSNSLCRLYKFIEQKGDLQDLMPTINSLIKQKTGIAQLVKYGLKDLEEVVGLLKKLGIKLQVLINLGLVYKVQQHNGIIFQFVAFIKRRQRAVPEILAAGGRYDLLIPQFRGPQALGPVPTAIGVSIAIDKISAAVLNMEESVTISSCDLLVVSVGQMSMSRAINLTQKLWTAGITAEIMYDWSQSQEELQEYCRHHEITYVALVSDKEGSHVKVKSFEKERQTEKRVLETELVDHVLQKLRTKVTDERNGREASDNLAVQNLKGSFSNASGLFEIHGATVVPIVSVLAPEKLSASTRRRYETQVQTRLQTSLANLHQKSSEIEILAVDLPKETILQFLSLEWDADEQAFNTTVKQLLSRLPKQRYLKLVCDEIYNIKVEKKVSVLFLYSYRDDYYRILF
Sequence of GCN2 kinase (Q9P2K8 whole entry): as above

Regarding `FC(F)c1ccc2ncc(-c3ccnc(N4CCOC(c5cn[nH]c5)C4)n3)n2c1` (centres unmarked) [I-18, 4-[4-[6-(Difluoromethyl)imidazo[1,2-a]pyridin-3-yl]pyrimidin-2-yl]-2-(1H-pyrazol-4-yl)morpholine], on GCN2 kinase, the Ki is below 10 nM. Besides, the IC50 (usually the midpoint of a concentration-inhibition curve) in assay [1] (setting [2]) was below 500 nM.
Consider `CS(=O)(=O)NC[C@@H]1CN(c2ccnc(-c3cnc4ccc(Cl)cn34)n2)CCO1` [I-19, N-[[(2S)-4-[2-(6-Chloroimidazo[1,2-a]pyridin-3-yl)pyrimidin-4-yl]morpholin-2-yl]methyl]methanesulfonamide], for which the Ki on GCN2 kinase lay within 10 to 100 nM. The IC50 in assay [1] (setting [2]) lay in the range of 500 to 5000 nM.
`Clc1ccc2ncc(-c3nccc(N4CCOC(c5cn[nH]c5)C4)n3)n2c1` (centres unmarked) [I-20, 4-[2-(6-Chloroimidazo[1,2-a]pyridin-3-yl)pyrimidin-4-yl]-2-(1H-pyrazol-4-yl)morpholine] returned a Ki on GCN2 kinase below 10 nM. For the same compound, the IC50 in assay [1] (setting [2]) was below 500 nM.
For `Clc1ccc2ncc(-c3ncnc(N4CCOC(c5cn[nH]c5)C4)n3)n2c1` (centres unmarked) [I-22, 4-[4-(6-Chloroimidazo[1,2-a]pyridin-3-yl)-1,3,5-triazin-2-yl]-2-(1H-pyrazol-4-yl)morpholine] the same measures were below 10 nM and below 500 nM.
`Fc1cc2ncc(-c3nccc(N4CCOC(c5cn[nH]c5)C4)n3)n2cc1Cl` (centres unmarked) [I-23, 4-[2-(6-Chloro-7-fluoro-imidazo[1,2-a]pyridin-3-yl)pyrimidin-4-yl]-2-(1H-pyrazol-4-yl)morpholine] registered a Ki at GCN2 kinase below 10 nM. Moreover, the IC50 in assay [1] (setting [2]) is below 500 nM.
`CS(=O)(=O)NCC1CCN(c2ccnc(-c3cnc4cc(F)c(Br)cn34)n2)C1` (centres unmarked) [I-25, N-[[1-[2-(6-Bromo-7-fluoro-imidazo[1,2-a]pyridin-3-yl)pyrimidin-4-yl]pyrrolidin-3-yl]methyl]methanesulfonamide] had a Ki on GCN2 kinase below 10 nM. In addition, the IC50 in assay [1] (setting [2]) lay within 500 to 5000 nM.
The matching figures for `Clc1ccc2ncc(-c3nccc(N4CCC(c5cn[nH]c5)C4)n3)n2c1` (centres unmarked) [I-27, 6-Chloro-3-[4-[3-(1H-pyrazol-4-yl)pyrrolidin-1-yl]pyrimidin-2-yl]imidazo[1,2-a]pyridine]: below 10 nM and below 500 nM.
Consider `Clc1ccc2ncc(-c3nccc(N4CCNC(c5cn[nH]c5)C4)n3)n2c1` (centres unmarked) [I-28, 6-Chloro-3-[4-[3-(1H-pyrazol-4-yl)piperazin-1-yl]pyrimidin-2-yl]imidazo[1,2-a]pyridine], for which the Ki on GCN2 kinase was below 10 nM. The concentration for half-maximal inhibition (IC50) in assay [1] (setting [2]) fell in the range of 500 to 5000 nM.
In turn, `CP(C)(=O)C1CC(c2cn[nH]c2)CN(c2ccnc(-c3cnc4ccc(Cl)cn34)n2)C1` (centres unmarked) [I-29, 6-Chloro-3-[4-[3-dimethylphosphoryl-5-(1H-pyrazol-4-yl)-1-piperidyl]pyrimidin-2-yl]imidazo[1,2-a]pyridine] registered a Ki on GCN2 kinase below 10 nM. The IC50 in assay [1] (setting [2]) is above 5000 nM.
`CC1CC(N=S(C)(C)=O)CN(c2ccnc(-c3cnc4ccc(C(F)(F)F)cn34)n2)C1` (centres unmarked) [I-31, Dimethyl((5-methyl-1-(2-(6-(trifluoromethyl)imidazo[1,2-a]pyridin-3-yl)pyrimidin-4-yl)piperidin-3-yl)imino)-λ^6-sulfanone] had a Ki on GCN2 kinase of 10 to 100 nM. The IC50 in assay [1] (setting [2]) was 500 to 5000 nM.
As to `CC1CC(N=S(C)(C)=O)CN(c2ccnc(-c3cnc4ccc(C(F)(F)F)cn34)n2)C1` (centres unmarked) [I-32, dimethyl((5-methyl-1-(2-(6-(trifluoromethyl)imidazo[1,2-a]pyridin-3-yl)pyrimidin-4-yl)piperidin-3-yl)imino)-λ^6-sulfanone], the Ki on GCN2 kinase is 10 to 100 nM. Moreover, in assay [1] (setting [2]), the IC50 is 500 to 5000 nM.
The compound `CC1CN(c2nccc(-c3cnc4ccc(Cl)cn34)n2)C(C)C(c2cn[nH]c2)N1` (centres unmarked) [I-35, 6-Chloro-3-[4-[2,5-dimethyl-3-(1H-pyrazol-4-yl)piperazin-1-yl]pyrimidin-2-yl]imidazo[12-a]pyridine] returned a Ki at GCN2 kinase of 10 to 100 nM. Moreover, the IC50 in assay [1] (setting [2]) fell in the range of 500 to 5000 nM.
`CC1CN(c2ccnc(-c3cnc4ccc(Cl)cn34)n2)C(C)C(c2cn[nH]c2)N1` (centres unmarked) [I-36, 6-chloro-3-[4-[2,5-dimethyl-3-(1H-pyrazol-4-yl)piperazin-1-yl]pyrimidin-2-yl]imidazo[1,2-a]pyridine] displayed a Ki on GCN2 kinase below 10 nM. Besides, the IC50 in assay [1] (setting [2]) was below 500 nM.
In turn, `O=C1NCC2CN(c3ccnc(-c4cnc5ccc(C(F)(F)F)cn45)n3)CCN12` (centres unmarked) [I-43, 7-[2-[6-(Trifluoromethyl)imidazo[1,2-a]pyridin-3-yl]pyrimidin-4-yl]-1,2,5,6,8,8a-hexahydroimidazo[1,5-a]pyrazin-3-one] displayed a Ki at GCN2 kinase below 10 nM. Also, the IC50 in assay [1] (setting [2]) fell in the range of 500 to 5000 nM.
As for `FC(F)(F)c1ccc2ncc(-c3nccc(N4CCOC(c5cn[nH]c5)C4)n3)n2c1` (centres unmarked) [I-45, 2-(1H-Pyrazol-4-yl)-4-(2-(6-(trifluoromethyl)imidazo[1,2-a]pyridin-3-yl)pyrimidin-4-yl)morpholine], the Ki on GCN2 kinase is below 10 nM. The IC50 in assay [1] (setting [2]) was below 500 nM.
Regarding `CC1CC(CS(C)(=N)=O)C(C)N(c2ccnc(-c3cnc4ccc(Cl)cn34)n2)C1` (centres unmarked) [I-46, ((1-(2-(6-Chloroimidazo[1,2-a]pyridin-3-yl)pyrimidin-4-yl)-2,5-dimethylpiperidin-3-yl)methyl)(imino)(methyl)-λ^6-sulfanone], the Ki on GCN2 kinase lay in the range of 10 to 100 nM. For the same compound, the IC50 in assay [1] (setting [2]) lay in the range of 500 to 5000 nM.
Regarding `CC1CC(CS(C)(=N)=O)C(C)N(c2ccnc(-c3cnc4ccc(Cl)cn34)n2)C1` (centres unmarked) [I-47, ((1-(2-(6-Chloroimidazo[1,2-a]pyridin-3-yl)pyrimidin-4-yl)-2,5-dimethylpiperidin-3-yl)methyl)(imino)(methyl)-λ^6-sulfanone], at GCN2 kinase, the Ki is below 10 nM. Moreover, in assay [1] (setting [2]), the IC50 lay within 500 to 5000 nM.
For `NC(=O)[C@H]1CCCN(c2ccnc(-c3cnc4cc(F)c(Cl)cn34)n2)C1` [I-48, (3S)-1-[2-(6-Chloro-7-fluoro-imidazo[1,2-a]pyridin-3-yl)pyrimidin-4-yl]piperidine-3-carboxamide] the same measures were below 10 nM and below 500 nM.
`CS(C)(=O)=NC1CCCN(c2ccnc(-c3cnc4cc(F)c(Cl)cn34)n2)C1` (centres unmarked) [I-49, ((1-(2-(6-Chloro-7-fluoroimidazo[1,2-a]pyridin-3-yl)pyrimidin-4-yl)piperidin-3-yl)imino)dimethyl-λ^6-sulfanone] showed a Ki on GCN2 kinase of 10 to 100 nM. Besides, the IC50 in assay [1] (setting [2]) is above 5000 nM.
On GCN2 kinase, `CC1CC(C(N)=O)C(C)N(c2ccnc(-c3cnc4ccc(Cl)cn34)n2)C1` (centres unmarked) [I-50, 1-[2-(6-Chloroimidazo[1,2-a]pyridin-3-yl)pyrimidin-4-yl]-2,5-dimethyl-piperidine-3-carboxamide] gave a Ki below 10 nM. Also, the IC50 in assay [1] (setting [2]) is 500 to 5000 nM.
Turning to `Cc1noc([C@H]2CN(c3ccnc(-c4cnc5ccc(Cl)cn45)n3)C[C@@H](C)O2)n1` [I-54], the Ki on GCN2 kinase was 10 to 100 nM. In assay [1] (setting [3]), this compound registered an IC50 of 500 to 5000 nM.
Compound `Clc1ccc2ncc(-c3nccc(N4CCCC(c5c[nH]cn5)C4)n3)n2c1` (centres unmarked) [I-55, 6-Chloro-3-{4-[3-(1H-imidazol-4-yl)-piperidin-1-yl]-pyrimidin-2-yl}-imidazo[1,2-a]pyridine] had a Ki on GCN2 kinase of 10 to 100 nM. Besides, the IC50 in assay [1] (setting [2]) fell in the range of 500 to 5000 nM.
As for `Fc1cc2ncc(-c3nccc(N4CCCC(c5c[nH]cn5)C4)n3)n2cc1Cl` (centres unmarked) [I-57, 6-Chloro-7-fluoro-3-{4-[3-(1H-imidazol-4-yl)-piperidin-1-yl]-pyrimidin-2-yl}-imidazo[1,2-a]pyridine], at GCN2 kinase, the Ki fell in the range of 10 to 100 nM. Besides, in assay [1] (setting [2]), the IC50 lay within 500 to 5000 nM.
`O=C(Nc1cn[nH]c1)[C@H]1CCCN(c2ccnc(-c3cnc4cc(F)c(Cl)cn34)n2)C1` [I-58, (S)-1-[2-(6-Chloro-7-fluoro-imidazo[1,2-a]pyridine-3-yl)-pyrimidin-4-yl]-piperidine-3-carboxylic acid (1H-pyrazol-4-yl)-amide] returned a Ki on GCN2 kinase of 10 to 100 nM. This compound showed an IC50 in assay [1] (setting [3]) of 500 to 5000 nM.
On GCN2 kinase, `Cn1cc(NC(=O)[C@H]2CCCN(c3ccnc(-c4cnc5cc(F)c(Cl)cn45)n3)C2)cn1` [I-59, (S)-1-[2-(6-Chloro-7-fluoro-imidazo[1,2-a]pyridine-3-yl)-pyrimidin-4-yl]-piperidine-3-carboxylic acid (1-methyl-1H-pyrazol-4-yl)-amide] showed a Ki of 100 to 1000 nM. Besides, the IC50 in assay [1] (setting [2]) is above 5000 nM.
In the case of `Cc1noc([C@@H]2CN(c3ccnc(-c4cnc5ccc(Cl)cn45)n3)C[C@H](C)O2)n1` [I-62], the Ki at GCN2 kinase was in the range of 10 to 100 nM. In addition, the IC50 in assay [1] (setting [2]) is 500 to 5000 nM.
For `Cc1noc([C@H]2CN(c3ccnc(-c4cnc5ccc(Cl)cn45)n3)C[C@@H](C)O2)n1` [I-63] the same measures were below 10 nM and below 500 nM.
For `Clc1ccc2ncc(-c3nccc(N4CCCC(c5cnoc5)C4)n3)n2c1` (centres unmarked) [I-65, 6-Chloro-3-[4-(3-isoxazol-4-yl-piperidin-1-yl)-pyrimidin-2-yl]-imidazo[1,2-a]pyridine], the Ki on GCN2 kinase lay in the range of 10 to 100 nM. The IC50 in assay [1] (setting [2]) was in the range of 500 to 5000 nM.
In turn, `Clc1ccc2ncc(-c3nccc(N4CCCC(c5ccon5)C4)n3)n2c1` (centres unmarked) [I-66, 6-Chloro-3-[4-(3-isoxazol-3-yl-piperidin-1-yl)-pyrimidin-2-yl]-imidazo[1,2-a]pyridine] displayed a Ki on GCN2 kinase of 10 to 100 nM. The IC50 in assay [1] (setting [2]) fell in the range of 500 to 5000 nM.
Regarding `CC(C)n1cc(C2(O)CCCN(c3ccnc(-c4cnc5ccc(Cl)cn45)n3)C2)nn1` (centres unmarked) [I-76, 1-[2-(6-Chloro-imidazo[1,2-a]pyridin-3-yl)-pyrimidin-4-yl]-3-(1-isopropyl-1H-[1,2,3]triazol-4-yl)-piperidin-3-ol], at GCN2 kinase, the Ki was in the range of 100 to 1000 nM. Moreover, in assay [1] (setting [2]), the IC50 is above 5000 nM.
As for `OC1(c2ccccc2)CCCN(c2ccnc(-c3cnc4cc(F)c(Cl)cn34)n2)C1` (centres unmarked) [I-81, 1-[2-(6-Chloro-7-fluoro-imidazo[1,2-a]pyridin-3-yl)-pyrimidin-4-yl]-3-phenyl-piperidin-3-ol], the Ki on GCN2 kinase was in the range of 10 to 100 nM. Further, the IC50 in assay [1] (setting [2]) lay in the range of 500 to 5000 nM.
